According to the supplement of paper PMC10627819:

Legend:
[1] = tested on: S. aureus Newman; assay: Bliss interaction score (quartile over a dose matrix) (fitness difference); higher = more antagonism (negative = synergy)
Method in brief: (§1)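 Fitness here means normalised growth, inferred for single drugs from the combination data. Growth was OD595 at entry into stationary phase, divided by the plate's robust no-drug mean and capped at 1. The Bliss score is observed minus expected fitness, with the expectation being the product, and its quartiles span technical, biological and donor/recipient replicates.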

[2] = tested on: S. aureus DSM 20231; assay: as above
Method in brief: as §1

[3] = tested on: B. subtilis 168; assay: as above
Method in brief: as §1

[4] = tested on: S. pneumoniae D39V; assay: as above
Method in brief: as §1

[5] = tested on: S. pneumoniae D39V; assay: fitness (endpoint OD595 vs no drug) (fraction); higher = more growth
Method in brief: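 Fitness expresses the optical density reached at the stationary-phase transition as a fraction of the robust mean of no-drug control wells. It is capped at 1. Measurements were OD595 every 30 min for 14 h at 37 °C after inoculation of 384-well plates at OD595 0.01 (30 µl, or 55 µl for S. pneumoniae), minus the first reading.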
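Wherever Bliss interaction score (quartile over a dose matrix) is given: first quartile when negative (synergy) and third quartile when positive (antagonism).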
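Wherever fitness (endpoint OD595 vs no drug) is given: OD595 on entry to stationary phase over no-drug wells; at most 1.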

Question: Which results are given for `CC1(C)S[C@@H]2[C@H](NC(=O)[C@H](N)c3ccc(O)cc3)C(=O)N2[C@H]1C(=O)O` [Amoxicillin] + C[C@@H](O)[C@H]1C(=O)N2C(C(=O)O)=C(SCCNC=N)C[C@H]12 [Imipenem]?
Answer: Bliss interaction score [1]: 0.0343; Bliss interaction score [2]: -0.0413; Bliss interaction score [3]: 0.189; Bliss interaction score [4]: -0.058; fitness ([5]; first compound 0.0008 µg/mL, partner 0.005 µg/mL, one replicate): 0.971; fitness ([5]; first compound 0.0008 µg/mL, partner 0.0065 µg/mL): 0.934; fitness ([5]; first compound 0.0008 µg/mL, partner 0.01 µg/mL, one replicate): 0.931; fitness ([5]; first compound 0.0008 µg/mL, partner 0.013 µg/mL): 0.908; fitness ([5]; first compound 0.0008 µg/mL, partner 0.02 µg/mL, one replicate): 0.907; fitness ([5]; first compound 0.0008 µg/mL, partner 0.026 µg/mL): 0.875; fitness ([5]; first compound 0.0015 µg/mL, partner 0.005 µg/mL): 0.928; fitness ([5]; first compound 0.0015 µg/mL, partner 0.0065 µg/mL): 0.927; fitness ([5]; first compound 0.0015 µg/mL, partner 0.01 µg/mL): 0.934; fitness ([5]; first compound 0.0015 µg/mL, partner 0.013 µg/mL): 0.919; fitness ([5]; first compound 0.0015 µg/mL, partner 0.02 µg/mL): 0.907; fitness ([5]; first compound 0.0015 µg/mL, partner 0.026 µg/mL): 0.859; fitness ([5]; first compound 0.003 µg/mL, partner 0.005 µg/mL): 0.888; fitness ([5]; first compound 0.003 µg/mL, partner 0.0065 µg/mL): 0.842; fitness ([5]; first compound 0.003 µg/mL, partner 0.01 µg/mL): 0.882; fitness ([5]; first compound 0.003 µg/mL, partner 0.013 µg/mL): 0.869; fitness ([5]; first compound 0.003 µg/mL, partner 0.02 µg/mL): 0.866; fitness ([5]; first compound 0.003 µg/mL, partner 0.026 µg/mL): 0.796; fitness ([5]; first compound 0.006 µg/mL, partner 0.005 µg/mL, one replicate): 0.431; fitness ([5]; first compound 0.006 µg/mL, partner 0.01 µg/mL, one replicate): 0.412; fitness ([5]; first compound 0.006 µg/mL, partner 0.02 µg/mL, one replicate): 0.373

Question: Which results are given for `CC1(C)S[C@@H]2[C@H](NC(=O)[C@H](N)c3ccc(O)cc3)C(=O)N2[C@H]1C(=O)O` [Amoxicillin] + C[C@H]1COc2c(N3CCN(C)CC3)c(F)cc3c(=O)c(C(=O)O)cn1c23 [Levofloxacin]?
Answer: Bliss interaction score [1]: -0.0695; Bliss interaction score [2]: 0.0396; Bliss interaction score [3]: 0.0559; Bliss interaction score [4]: 0.142; fitness ([5]; first compound 0.0008 µg/mL, partner 0.1725 µg/mL): 0.955; fitness ([5]; first compound 0.0008 µg/mL, partner 0.2 µg/mL, one replicate): 0.959; fitness ([5]; first compound 0.0008 µg/mL, partner 0.345 µg/mL): 0.911; fitness ([5]; first compound 0.0008 µg/mL, partner 0.4 µg/mL, one replicate): 0.881; fitness ([5]; first compound 0.0008 µg/mL, partner 0.69 µg/mL): 0.591; fitness ([5]; first compound 0.0008 µg/mL, partner 0.8 µg/mL, one replicate): 0.718; fitness ([5]; first compound 0.0015 µg/mL, partner 0.1725 µg/mL): 0.976; fitness ([5]; first compound 0.0015 µg/mL, partner 0.2 µg/mL): 0.951; fitness ([5]; first compound 0.0015 µg/mL, partner 0.345 µg/mL): 0.906; fitness ([5]; first compound 0.0015 µg/mL, partner 0.4 µg/mL): 0.868; fitness ([5]; first compound 0.0015 µg/mL, partner 0.69 µg/mL): 0.57; fitness ([5]; first compound 0.0015 µg/mL, partner 0.8 µg/mL): 0.774; fitness ([5]; first compound 0.003 µg/mL, partner 0.1725 µg/mL): 0.96; fitness ([5]; first compound 0.003 µg/mL, partner 0.2 µg/mL): 0.866; fitness ([5]; first compound 0.003 µg/mL, partner 0.345 µg/mL): 0.89; fitness ([5]; first compound 0.003 µg/mL, partner 0.4 µg/mL): 0.893; fitness ([5]; first compound 0.003 µg/mL, partner 0.69 µg/mL): 0.561; fitness ([5]; first compound 0.003 µg/mL, partner 0.8 µg/mL): 0.775; fitness ([5]; first compound 0.006 µg/mL, partner 0.2 µg/mL, one replicate): 0.5; fitness ([5]; first compound 0.006 µg/mL, partner 0.4 µg/mL, one replicate): 0.509; fitness ([5]; first compound 0.006 µg/mL, partner 0.8 µg/mL, one replicate): 0.399

Question: What does the source list for `CC1(C)S[C@@H]2[C@H](NC(=O)[C@H](N)c3ccc(O)cc3)C(=O)N2[C@H]1C(=O)O` [Amoxicillin] + C[C@H]1c2cccc(O)c2C(=O)C2=C(O)[C@]3(O)C(=O)C(C(N)=O)=C(O)[C@@H](N(C)C)[C@@H]3[C@@H](O)[C@@H]21 [Doxycycline]?
Answer: Bliss interaction score [1]: -0.0414; Bliss interaction score [2]: -0.0671; Bliss interaction score [3]: 0.136; Bliss interaction score [4]: 0.151; fitness ([5]; first compound 0.0008 µg/mL, partner 0.003875 µg/mL, one replicate): 0.967; fitness ([5]; first compound 0.0008 µg/mL, partner 0.00775 µg/mL, one replicate): 0.976; fitness ([5]; first compound 0.0008 µg/mL, partner 0.0155 µg/mL): 0.931; fitness ([5]; first compound 0.0008 µg/mL, partner 0.031 µg/mL): 0.853; fitness ([5]; first compound 0.0008 µg/mL, partner 0.062 µg/mL): 0.797; fitness ([5]; first compound 0.0015 µg/mL, partner 0.003875 µg/mL, one replicate): 0.961; fitness ([5]; first compound 0.0015 µg/mL, partner 0.00775 µg/mL, one replicate): 0.988; fitness ([5]; first compound 0.0015 µg/mL, partner 0.0155 µg/mL): 0.899; fitness ([5]; first compound 0.0015 µg/mL, partner 0.031 µg/mL): 0.86; fitness ([5]; first compound 0.0015 µg/mL, partner 0.062 µg/mL): 0.767; fitness ([5]; first compound 0.003 µg/mL, partner 0.003875 µg/mL, one replicate): 0.944; fitness ([5]; first compound 0.003 µg/mL, partner 0.00775 µg/mL, one replicate): 0.973; fitness ([5]; first compound 0.003 µg/mL, partner 0.0155 µg/mL): 0.898; fitness ([5]; first compound 0.003 µg/mL, partner 0.031 µg/mL): 0.903; fitness ([5]; first compound 0.003 µg/mL, partner 0.062 µg/mL): 0.724; fitness ([5]; first compound 0.006 µg/mL, partner 0.0155 µg/mL, one replicate): 0.386; fitness ([5]; first compound 0.006 µg/mL, partner 0.031 µg/mL, one replicate): 0.421; fitness ([5]; first compound 0.006 µg/mL, partner 0.062 µg/mL, one replicate): 0.451

Question: What does the source list for `CC1(C)S[C@@H]2[C@H](NC(=O)[C@H](N)c3ccc(O)cc3)C(=O)N2[C@H]1C(=O)O` [Amoxicillin] + Clc1ccc(COC(Cn2ccnc2)c2ccc(Cl)cc2Cl)c(Cl)c1 [Miconazole]?
Answer: Bliss interaction score [1]: 0.0536; Bliss interaction score [2]: 0.0878; Bliss interaction score [3]: 0.0957; Bliss interaction score [4]: -0.0912; fitness ([5]; first compound 0.0008 µg/mL, partner 1.073 µg/mL): ≥ 1; fitness ([5]; first compound 0.0008 µg/mL, partner 1.25 µg/mL, one replicate): 0.89; fitness ([5]; first compound 0.0008 µg/mL, partner 2.145 µg/mL): 0.881; fitness ([5]; first compound 0.0008 µg/mL, partner 2.5 µg/mL, one replicate): 0.799; fitness ([5]; first compound 0.0008 µg/mL, partner 4.29 µg/mL): 0.882; fitness ([5]; first compound 0.0008 µg/mL, partner 5 µg/mL, one replicate): 0.987; fitness ([5]; first compound 0.0015 µg/mL, partner 1.073 µg/mL): ≥ 1; fitness ([5]; first compound 0.0015 µg/mL, partner 1.25 µg/mL): 0.781; fitness ([5]; first compound 0.0015 µg/mL, partner 2.145 µg/mL): 0.948; fitness ([5]; first compound 0.0015 µg/mL, partner 2.5 µg/mL): 0.831; fitness ([5]; first compound 0.0015 µg/mL, partner 4.29 µg/mL): 0.848; fitness ([5]; first compound 0.0015 µg/mL, partner 5 µg/mL): 0.906; fitness ([5]; first compound 0.003 µg/mL, partner 1.073 µg/mL): 0.994; fitness ([5]; first compound 0.003 µg/mL, partner 1.25 µg/mL): 0.736; fitness ([5]; first compound 0.003 µg/mL, partner 2.145 µg/mL): 0.778; fitness ([5]; first compound 0.003 µg/mL, partner 2.5 µg/mL): 0.814; fitness ([5]; first compound 0.003 µg/mL, partner 4.29 µg/mL): 0.739; fitness ([5]; first compound 0.003 µg/mL, partner 5 µg/mL): 0.849; fitness ([5]; first compound 0.006 µg/mL, partner 1.25 µg/mL, one replicate): 0.355; fitness ([5]; first compound 0.006 µg/mL, partner 2.5 µg/mL, one replicate): 0.264; fitness ([5]; first compound 0.006 µg/mL, partner 5 µg/mL, one replicate): 0.395
